Source: patent publication US11407765B2, “Tetracyclic heteroaryl compounds” (AstraZeneca AB, priority 2018, dated 2022)
Where two headings read alike, the source gives them in different places.

How the values were obtained:
[1] = Caco AB cell permeability; format: in vitro ADME; conditions: human, Caco-2; A to B
KRasG12C [2] = target: T1, KRasG12C (Homo sapiens, UniProt P01116, G12C); experiment: KRasG12C mass spectrometry adducting assay; format: binding; conditions: 10 μM test compound, 4 μM GDP loaded KRasG12C, 4 hours
T1 construct: biotin (biotinylated); made in house
Experimental: KRasG12C Mass Spectrometry Adducting Assay
Enzyme solutions were prepared in assay buffer containing 20 mM HEPES (pH 7.5), 5 mM MgCl2, and 150 mM NaCl. […] The plate was sealed before reading on a Xevo G2 QTOF (Waters) and Acquity LC system (Waters). 10 μl of sample was injected onto a Xbridge BEH300; C4; 3.5 um; 2.1×50 mm column (Waters) running a 3 minute gradient. Blank samples were run in between each test sample.
Data was analysed in Mass Lynx software (Waters), the Total ion count (TIC) trace was used and the eluted protein peak data combined. Using the combined spectrum the data was deconvoluted using MaxEnt1 method. The peak area for apo-protein KRas^G12C (APO) and KRAS+relative cmpd mass (adduct) were measured, and a percentage adduct was calculated using the following calculation: Percent adduct=100*(area of adduct peak/(sum of APO+adduct peaks)

[3] = In vivo pharmacokinetics in rat (oral bioavailability, clearance)
KRasG12C [4] = target: T1, KRasG12C; experiment: KRasG12C functional assay (HTRF, SOS-mediated nucleotide exchange / Raf RBD binding); format: biochemical; conditions: 4 hrs incubation with GDP loaded biotinylated KRasG12C, single experiment or average of two or more
Experimental: KRasG12C Functional Assay
All enzyme and substrate solutions were prepared in assay buffer containing 20 mM HEPES (pH 7.5), 5 mM MgCl2, 150 mM NaCl, and 0.01% Tween 20. […] In a separate mix 20 nM GST-Raf Ras binding domain (GST-Raf RBD, purified in house) and 4 μg/ml anti-GST XL665 antibody (Cisbio) was prepared in assay buffer containing 50 mM Potassium Fluoride and 0.05 mg/ml BSA and equilibrated for 4 hours before adding 0.6 μM Guanosine 5′-[γ-thio]triphosphate (GTPγS, Sigma) and 0.08 μM SOS (purified in house). 5 μl of the GST-RAF RBD mix was then dispensed into each well of the assay plate. […] This is detected simultaneously via the specific binding interaction between active GTPγS KRas^G12C with GST-Raf RBD which brings the europium and XL665 into close proximity enabling an increased FRET signal to be detected on a Pherastar (BMG) plate reader equipped with the HTRF filter module. […] IC50 values were calculated from normalised dose-response response FRET data curve fitted in Genedata screener (Basel, Switzerland).

Half life in rat blood = format: in vitro ADME
[5] = read-out: KRasG12C functional assay IC50 value
[6] = KRasG12C functional assay IC50 value

T1 sequence (P01116 1-188 isoform P01116-2 G12C): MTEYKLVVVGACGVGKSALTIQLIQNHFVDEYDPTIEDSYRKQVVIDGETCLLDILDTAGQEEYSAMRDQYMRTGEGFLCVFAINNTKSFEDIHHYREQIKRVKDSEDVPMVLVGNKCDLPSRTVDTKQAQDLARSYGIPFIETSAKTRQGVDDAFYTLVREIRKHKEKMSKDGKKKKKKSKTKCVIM

Row | Structure (SMILES) | KRasG12C M. S. Binding Mean adduct % (KRasG12C [2]) [%] | IC50 (KRasG12C [4]; [5]) [nM] | further results
1 | C=CC(=O)N1C[C@H]2COc3c(Cl)c(-c4c(O)cccc4F)c(F)c4ncnc(c34)N2C[C@H]1C (single isomer, unassigned) [Example 4] | 96 | 50 | Papp A→B [1]: 58 ×10⁻⁶ cm/s; oral bioavailability [3]: 31%; clearance ([3]; in vivo): 29 mL/min/kg
2 | C=CC(=O)N1CCN2c3ncnc4c(F)c(-c5c(C)ccc6[nH]cnc56)c(Cl)c(c34)OC[C@@H]2C1 (single isomer, unassigned) [Example 9] | 22 | 230 | –
3 | C=CC(=O)N1CCN2c3ncnc4c(F)c(-c5c(C)cccc5O)c(Cl)c(c34)OC[C@@H]2C1 (single isomer, unassigned) [Example 12] | 95 | 31 | –
4 | CN(C)C/C=C/C(=O)N1CCN2c3ncnc4c(F)c(-c5c(O)cccc5F)c(Cl)c(c34)OC[C@@H]2C1 (single isomer, unassigned) [Example 14] | 94 | 59 | –
5 | C=CC(=O)N1CCN2c3ncnc4c(F)c(-c5c(C)ccc6cc[nH]c(=O)c56)c(Cl)c(c34)OC[C@@H]2C1 (single isomer, unassigned) [Example 16] | 91 | 10 | –
6 | C=CC(=O)N1CCN2c3ncnc4c(F)c(-c5c(C)ccc6cc[nH]c(=O)c56)c(Cl)c(c34)OC[C@@H]2C1 (single isomer, unassigned) [Example 17] | 30 | 373 | –
7 | C=CC(=O)N1CCN2c3ncnc4c(F)c(-c5c(C)ccc6[nH]nnc56)c(Cl)c(c34)OC[C@@H]2C1 (single isomer, unassigned) [Example 18] | 25 | 239 | –
8 | C=CC(=O)N1CCN2c3ncnc4c(F)c(-c5c(C)ccc6[nH]nnc56)c(Cl)c(c34)OC[C@@H]2C1 (single isomer, unassigned) [Example 19] | 94 | 24 | –
9 | C=CC(=O)N1CCN2c3ncnc4c(F)c(-c5c(F)ccc6[nH]cnc56)c(Cl)c(c34)OC[C@@H]2C1 (single isomer, unassigned) [Example 20] | 100 | 29 | –
10 | C=CC(=O)N1CCN2c3ncnc4c(F)c(-c5c(F)ccc6[nH]ncc56)c(Cl)c(c34)OC[C@@H]2C1 (single isomer, unassigned) [Example 22] | 95 | 30 | –
11 | C=CC(=O)N1CCN2c3ncnc4c(F)c(-c5c(F)ccc6c5ncn6C)c(Cl)c(c34)OC[C@@H]2C1 (single isomer, unassigned) [Example 24] | 99 | 97 | –
12 | C=CC(=O)N1CCN2c3ncnc4c(F)c(-c5c(F)ccc6[nH]nnc56)c(Cl)c(c34)OC[C@@H]2C1 (single isomer, unassigned) [Example 26] | 100 | 51 | –
13 | C=CC(=O)N1CCN2c3ncnc4c(F)c(-c5c(F)ccc6cc[nH]c(=O)c56)c(Cl)c(c34)OC[C@@H]2C1 (single isomer, unassigned) [Example 28] | 92 | 5 | –
14 | Cc1ccc2[nH]ncc2c1-c1c(Cl)c2c3c(ncnc3c1F)N1CCN(C(=O)/C=C/CN(C)C)C[C@H]1CO2 (single isomer, unassigned) [Example 30] | 94 | 170 | –
15 | C=CC(=O)N1C[C@@H]2CCOc3c(Cl)c(-c4c(O)cccc4F)c(F)c4ncnc(c34)N2C[C@H]1C (single isomer, unassigned) [Example 39] | – | – | Papp A→B [1]: 72 ×10⁻⁶ cm/s; clearance (Cl) [3]: 22 mL/min/kg; oral bioavailability [3]: 75%; IC50 (KRasG12C [4]; [6]): 3 nM
16 | C=CC(=O)N1C[C@@H]2CCOc3c(Cl)c(-c4c(O)cccc4F)c(F)c4ncnc(c34)N2C[C@@H]1C (single isomer, unassigned) [Example 42] | 95.528 | – | IC50 (KRasG12C [4]; [6]): 111 nM
17 | C=CC(=O)N1C[C@H]2COc3c(Cl)c(-c4c(O)cccc4F)c(F)c4ncnc(c34)N2C[C@@H]1C [Example 3, 1-[(8aS,11S)-6-Chloro-4-fluoro-5-(2-fluoro-6-hydroxyphenyl)-11-methyl-8a,9,11,12-tetrahydropyrazino[2′,1′:3,4][1,4]oxazepino[5,6,7-de]quinazolin-10(8H)-yl]prop-2-en-1-one] | 54 | 113 | –
18 | C=CC(=O)N1CCN2c3ncnc4c(F)c(-c5cccc6cc[nH]c(=O)c56)c(Cl)c(c34)OC[C@@H]2C1 [Example 10, 8-[(8aS)-6-Chloro-4-fluoro-10-(prop-2-enoyl)-8,8a,9,10,11,12-hexahydropyrazino[2′,1′:3,4][1,4]oxazepino[5,6,7-de]quinazolin-5-yl]isoquinolin-1(2H)-one] | 94 | 68 | –
19 | C=CC(=O)N1CCN2c3ncnc4c(F)c(-c5n[nH]c6ccccc56)c(Cl)c(c34)OC[C@@H]2C1 [Example 11, 1-[(8aS)-6-Chloro-4-fluoro-5-(1H-indazol-3-yl)-8a,9,11,12-tetrahydropyrazino[2′,1′:3,4][1,4]oxazepino[5,6,7-de]quinazolin-10(8H)-yl]prop-2-en-1-one] | 96 | 201 | –
20 | C=CC(=O)N1CCN2c3ncnc4c(F)c(-c5c(O)cccc5F)c(Cl)c(c34)OC[C@@H]2C1 [R^5 desmethyl compound, 1-((8aS)-6-chloro-4-fluoro-5-(2-fluoro-6-hydroxyphenyl)-8a,9,11,12-tetrahydropyrazino[2′,1′:3,4] [1,4]oxazepino[5,6,7-de]quinazolin-10(8H)-yl)prop-2-en-1-one, reference compound] | – | – | Papp A→B [1]: 5.8 ×10⁻⁶ cm/s; half-life (Half life in rat blood): 12 min; clearance ([3]; in vivo): 962 mL/min/kg; bioavailability ([3]; in vivo, po): 0%
